Here are results for 16 compounds from patent publication US5010086A, “Imidazopyridines, compositions and use” (Sterling Drug Inc., priority 1990, dated 1991).

The structures appear in SMILES notation.

Holding throughout (assay type): biochemical, canine
Assay [1] addresses PDE I. The assay can be described thus: phosphodiesterase inhibition, PDE I (peak I PDE). The note with it: for IC50: peak I PDE. An excerpt:
(§1) Multiple isozymic forms of cyclic nucleotide phosphodiesterase (PDE) exist in most tissues. […] A "low Km" cGMP form of PDE (also referred to as peak I PDE) also has been identified. Increases in cAMP and cGMP will relax both vascular smooth and bronchial smooth muscle. Selective PDE isozyme inhibition represents a novel subcellular mechanism by which increses in cAMP or cGMP and subsequent vaso- or broncho-relaxation may be achieved. Moreover, a component of positive inotropy may be retained, dependent upon the isozyme or tissue source specificity of an inhibitor. Thus, development of PDE isozyme inhibitors represents novel approaches for the discovery of agents useful for treating hypertension, congestive heart failure or asthma. For example, compounds having essentially high PDE III inhibitory activity are expected to have cardiotonic and vasodilatory (antihypertensive) activity. PDE isozymes (peak I and III) are isolated from canine aortic smooth, ventricular or tracheal smooth muscle sources by DEAE - cellulose column chromatography. Inhibition of both peaks by a putative inhibitor from any of these sources is quantitated. If ≥50% inhibition is detected at 30 μM, then an IC50 value and corresponding 95% confidence limits for both peaks is determined.
(§2) The procedures for the separation of the isozymes of PDE from animal tissue and the testing of the compounds of the invention for phosphodiesterase inhibition are essentially those described by Weishaar et al., Biochem. Pharmacol. 35:787-800 (1986) and Thompson et al., Adv. Cyclic Nucleotide Res. 10:69-92. Initial screening of test compounds with both peak I and peak III PDE isozymes is done at a concentration of 10, 30 or 100 μm, and each assay is performed in triplicate for each inhibitor. The IC50 values (concentration causing 50% inhibition) are then calculated from concentration-response curves as described by Tallarida and Murray, Manual of Pharmacologic Calculations with Computer Programs, Procedure 8, Graded Dose-Response, pp. 14-19, Springer-Verlag, New York, 1981.

Assay [2] deals with T1, PDE III (Canis lupus familiaris, UniProt A0A8I3NYE0).
T1 construct: isolated from canine aortic smooth, ventricular or tracheal smooth muscle sources; from tissue; host or cells: canine aortic smooth, ventricular or tracheal smooth muscle; DEAE-cellulose peak III
T1 sequence (A0A8I3NYE0 1-1135): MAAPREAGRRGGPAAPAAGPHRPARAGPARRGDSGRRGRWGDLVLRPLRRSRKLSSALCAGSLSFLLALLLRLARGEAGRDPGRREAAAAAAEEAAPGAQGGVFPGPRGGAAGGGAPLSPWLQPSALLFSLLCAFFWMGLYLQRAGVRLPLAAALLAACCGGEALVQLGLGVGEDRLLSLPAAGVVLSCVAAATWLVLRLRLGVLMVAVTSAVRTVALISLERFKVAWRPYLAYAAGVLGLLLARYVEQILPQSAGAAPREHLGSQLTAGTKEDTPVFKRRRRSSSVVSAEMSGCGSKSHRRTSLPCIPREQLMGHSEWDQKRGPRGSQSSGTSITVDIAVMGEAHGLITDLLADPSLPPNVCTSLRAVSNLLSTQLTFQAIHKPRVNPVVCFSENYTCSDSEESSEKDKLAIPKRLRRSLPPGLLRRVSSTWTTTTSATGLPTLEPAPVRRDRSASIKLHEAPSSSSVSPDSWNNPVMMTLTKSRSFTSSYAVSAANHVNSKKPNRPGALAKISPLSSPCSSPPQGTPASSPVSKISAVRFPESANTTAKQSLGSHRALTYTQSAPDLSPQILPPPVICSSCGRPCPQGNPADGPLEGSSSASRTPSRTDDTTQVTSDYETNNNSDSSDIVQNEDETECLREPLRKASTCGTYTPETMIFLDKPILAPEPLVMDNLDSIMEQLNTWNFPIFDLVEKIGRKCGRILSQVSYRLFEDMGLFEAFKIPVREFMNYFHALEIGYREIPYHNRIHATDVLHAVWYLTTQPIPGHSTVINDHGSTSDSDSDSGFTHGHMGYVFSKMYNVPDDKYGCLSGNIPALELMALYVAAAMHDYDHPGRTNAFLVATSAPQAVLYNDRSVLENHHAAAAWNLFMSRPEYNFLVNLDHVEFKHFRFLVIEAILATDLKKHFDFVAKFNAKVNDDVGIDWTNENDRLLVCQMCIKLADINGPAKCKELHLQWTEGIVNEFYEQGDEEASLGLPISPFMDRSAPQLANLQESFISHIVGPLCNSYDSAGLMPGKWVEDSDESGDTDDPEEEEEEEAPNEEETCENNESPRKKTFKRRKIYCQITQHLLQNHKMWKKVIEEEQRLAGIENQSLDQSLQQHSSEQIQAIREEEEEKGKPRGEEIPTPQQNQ
The assay can be described thus: phosphodiesterase inhibition, PDE III (peak III PDE).
Source text: as §1, §2

In assay [3] the test system is PDE I. The assay can be described thus: phosphodiesterase inhibition, PDE I (peak I PDE).
Assay [4] has as its target T1, PDE III. Put plainly: phosphodiesterase inhibition, PDE III (peak III PDE). Conditions: read-out: Percent Inhibition PDE III.

Turning to `O=c1[nH]c2cc(-c3ccncc3)c(C(F)(F)F)nc2[nH]1` [1(e), 1,3-Dihydro-6-(4-pyridinyl)-5-trifluoromethyl-2H-imidazo[4,5-b]pyridin-2-one], the 50% inhibitory concentration (IC50) (in general, the concentration needed to halve the response being measured) at PDE I [1] amounted to 52900 nM; against PDE III [2], 23 nM.

In the case of `O=c1[nH]c2cc(-c3cc[n+]([O-])cc3)c(C(F)(F)F)nc2[nH]1` [1(f), 1,3-Dihydro-6-(4-pyridinyl)-5-trifluoromethyl-2H-imidazo[4,5-b]pyridin-2-one N-(py)-oxide], the “Percent Inhibition PDE I” value with PDE I [3] (at 1 μM) was found to be 0%. The IC50 against PDE III [2] stood at 29 nM.

Take `O=c1[nH]c2cc(-c3ccncc3)c(C(F)(F)C(F)(F)F)nc2[nH]1` [2(d), 1,3-Dihydro-6-(4-pyridinyl)-5-pentafluoroethyl-2H-imidazo[4,5-b]pyridin-2-one]: the 50% inhibitory concentration (IC50) at PDE I [1] was 12000 nM; on PDE III [2] it was 1800 nM.

Regarding `O=c1[nH]c2cc(-c3ccnc4ccccc34)c(C(F)(F)F)nc2[nH]1` [3(e), 1,3-Dihydro-6-(4-quinolinyl)-5-trifluoromethyl-2H-imidazo[4,5-b]pyridine-2-one], the “Percent Inhibition PDE I” value in the assay on PDE I [1] (at 100 μM) is 4%. For the same compound, the inhibition (as a rule, the change of the read-out against control, counted positive when it falls) at 1 µM on PDE III [4] stood at 9%.

`Cc1nc2[nH]c(=O)[nH]c2cc1-c1ccccc1` [4(c), 1,3-Dihydro-5-methyl-6-phenyl-2H-imidazo[4,5-b]pyridin-2-one]: the “Percent Inhibition PDE I” value in the assay on PDE I [3] (at 1000 μM) is recorded as 38%. On PDE III [2], this compound came in with a 50% inhibitory concentration (IC50) of 270 nM.

With `Cc1nc2[nH]c(=O)[nH]c2cc1-c1ccc([N+](=O)[O-])cc1` [Example 5, 1,3-Dihydro-5-methyl-6-(4-nitrophenyl)-2H-imidazo[4,5-b]pyridin-2-one], the “Percent Inhibition PDE I” value with PDE I [3] (at 300 μM) is reported as 35%. Besides, the concentration for half-maximal inhibition (IC50) against PDE III [2] amounted to 9 nM.

Consider `Cc1nc2[nH]c(=O)[nH]c2cc1-c1ccc(N)cc1` [Example 6, 6-(4-Aminophenyl)-1,3-dihydro-5-methyl-2H-imidazo[4,5-b]pyridin-2-one], for which the 50% inhibitory concentration (IC50) came out at 45000 nM against PDE I [1] and 500 nM against PDE III [2].

`Cc1nc2[nH]c(=O)[nH]c2cc1-c1ccc(NC(=O)C(F)(F)F)cc1` [Example 7, 1,3-Dihydro-5-methyl-6-[4-(trifluoroacetylamino)phenyl]-2H-imidazo[4,5-b]pyridin-2-one]: the half-maximal inhibitory concentration (IC50) on PDE I [1] came out at 63600 nM; against PDE III [2], 630 nM.

Regarding `CC(=O)Nc1ccc(-c2cc3[nH]c(=O)[nH]c3nc2C)cc1` [Example 8, 6-[4-(Acetylamino)phenyl]-1,3-dihydro-5-methyl-2H-imidazo[4,5-b]pyridin-2-one], the “Percent Inhibition PDE I” value in the assay with PDE I [1] (at 30 μM) was found to be 22%. This compound returned an IC50 at PDE III [2] of 620 nM.

`Cc1nc2[nH]c(=O)[nH]c2cc1-c1ccc(NS(C)(=O)=O)cc1` [Example 9, 1,3-Dihydro-6-[4-(methanesulfonylamino)phenyl]-5-methyl-2H-imidazo[4,5-b]pyridin-2-one]: the half-inhibitory concentration (IC50) is 45000 nM on PDE I [1] and 470 nM on PDE III [2].

As for `CCCCS(=O)(=O)Nc1ccc(-c2cc3[nH]c(=O)[nH]c3nc2C)cc1` [Example 10, 6-[4-(Butanesulfonylamino)phenyl]-1,3-dihydro-5-methyl-2H-imidazo[4,5-b]pyridin-2-one], the values for the concentration for half-maximal inhibition (IC50) at PDE I [1] and against PDE III [2] were 9000 nM and 94 nM, respectively.

For the compound `CCCCC(=O)Nc1ccc(-c2cc3[nH]c(=O)[nH]c3nc2C)cc1` [Example 11, 6-[4-(Butanecarbonylamino)phenyl]-1,3-dihydro-5-methyl-2H-imidazo[4,5-b]pyridin-2-one], the “Percent Inhibition PDE I” value in the assay on PDE I [3] (at 1 μM) was determined as 0%. Besides, the inhibition at 1 µM at PDE III [4] came to 37%.

Regarding `Cc1ccc(S(=O)(=O)Nc2ccc(-c3cc4[nH]c(=O)[nH]c4nc3C)cc2)cc1` [Example 12, 1,3-Dihydro-5-methyl-6-[4-(p-toluenesulfonylamino)phenyl]-2H-imidazo[4,5-b]pyridin-2-one], the “Percent Inhibition PDE I” value with PDE I [3] (at 1 μM) was found to be 13%. In addition, at PDE III [4], the inhibition at 1 µM came out at 64%.

For the compound `CCCCCCS(=O)(=O)Nc1ccc(-c2cc3[nH]c(=O)[nH]c3nc2C)cc1` [Example 13, 1,3-Dihydro-6-[4-(hexanesulfonylamino)phenyl]-5-methyl-2H-imidazo[4,5-b]pyridin-2-one], the 50% inhibitory concentration (IC50) against PDE I [1] came to 5600 nM; against PDE III [2] it was 53 nM.

On to `Cc1nc2[nH]c(=O)[nH]c2cc1-c1ccc(NS(=O)(=O)c2cccc3cccnc23)cc1` [Example 14, 1,3-Dihydro-6-[4-(8-quinolinylsulfonylamino)phenyl]-5-methyl-2H-imidazo[4,5-b]pyridin-2-one], for which the values for the IC50 at PDE I [1] and against PDE III [2] were 1600 nM and 55 nM, respectively.

Turning to `CCCNC(=O)Nc1ccc(-c2cc3[nH]c(=O)[nH]c3nc2C)cc1` [Example 15, 1,3-Dihydro-6-[4-(N'-propylureido)phenyl]-5-methyl-2H-imidazo[4,5-b]pyridin-2-one], the results for the IC50 against PDE I [1] and at PDE III [2] were 319000 nM and 104 nM, respectively.
